Reference: publication PMC7937321 (Genes and Environment, 2021)

Tests used:
[1] = tested on: human lymphoblastoid TK6 cells, thymidine kinase gene; test: TK gene mutation assay (TK6 assay, OECD TG490)
TK6 cells = test: Cytotoxicity in the TK6 assay (CE, RS, RSG, RTG); settings: for CE3: as fraction
Method: Briefly, test substances were dissolved in an appropriate solvent (DMSO or ethanol) and then serially diluted to prepare final concentrations. […] The 4 h and 24 h treatments were conducted by shaking and static exposures, respectively. After treatment with test substances, cells were centrifuged (1000 rpm, 5 min), supernatants were removed, and cells were washed with a serum-free medium or Hank’s Balanced Salt Solution. After centrifugation (1000 rpm, 5 min) to remove the supernatant, cells (2 × 10^7 cells) were dispersed in an RPMI medium containing 10% serum, and cell concentration was measured. Treated cells were cultured at 37 °C with 5% CO2 condition and used for TK6 assays. At that time, to calculate the cloning efficiency (CE) (Eq. 1), the cells were cultured in a 96-well microplate at a concentration of about 1.6 cells/well for 2 weeks.
CE, the cell colony formation rate, was calculated using Eq. 1 according to the Poisson distribution equation. EW was the number of wells without colonies, and TW was the total number of wells. N was the average number of cells per well (N = 1.6). 1 CE=−lnEW/TW/N
Additionally, CE was adjusted by the following calculation (Eq. 2) due to cell loss when exposure caused cytotoxicity. “The number of cells at the end of the treatment” was the number of cells obtained after centrifugation at the end of the treatment in the above-described exposure treatment of the test substance. The “cell number at the start of treatment” was 2 × 10^7. 2 AdjustedCE=CE×number of cellsatendof treatment/number of cellsatthe start of treatment
CE0 seeding, in which cells were seeded immediately after treatment, and CE3 seeding, in which cells were seeded 3 days after treatment, to examine cell viability in the TK6 assay described below. The relative cell viability RS0 (%) just after the treatment with the test substance was calculated from CE0, following Eq. 3. The survival rate of the negative control group was defined as 100%. 3 RS0%=adjusted CE0 of treatment culture/adjusted CE0 of solvent control×100
The TK6 assay is conducted between 20 and 10% RS0 as a maximum dose if cytotoxicity is observed. […] When the main TK6 assay was difficult to conduct under the condition of RS0 values from 20 to 10%, the test was conducted between 20 and 10% relative total growth (RTG), described later, as a maximum dose.
Besides RS0, relative suspension growth (RSG) and RTG as other cytotoxicity indices (Eq. 4) were used. When cells were cultured for 3 days after treatment with the test substance, suspension cell growth ratio 1 (SG1) was the growth ratio from day 0 to day 1 (cell concentration on day 1/cell concentration on day 0). The suspension cell growth ratio 2 (SG2) was the growth ratio from day 1 to day 2 (cell concentration on day 2/cell concentration on day 1). The RSG value was calculated by dividing the total SG value of the untreated group for 3 days by the total SG value of the treated group for the same 3 days (Eq. 4).
On the third day of culture, CE3 plates for determining plating efficiency and mutant frequency (MF) plates for mutation detection were prepared. CE3 plates were seeded in 96-well microplates at a concentration of about 1.6 cells/well.

[2] = TK6, short treatment -S9 mix, 250 μg/mL
[3] = TK6, short treatment -S9 mix, 500 μg/mL
[4] = TK6, short treatment -S9 mix, 1000 μg/mL
[5] = TK6, short treatment -S9 mix, 2000 μg/mL
[6] = dose 250 μg/mL, +S9 mix, short treatment
[7] = dose 250 μg/mL, -S9 mix, 24 h treatment
[8] = dose 500 μg/mL, +S9 mix, short treatment
[9] = dose 500 μg/mL, -S9 mix, 24 h treatment
[10] = dose 1000 μg/mL, +S9 mix, short treatment
[11] = dose 1000 μg/mL, -S9 mix, 24 h treatment
[12] = dose 2000 μg/mL, +S9 mix, short treatment
[13] = dose 2000 μg/mL, -S9 mix, 24 h treatment

Cc1c(N)cccc1N [2,6-DAT] was tested, and the “%SG” value [1, 2] was 77.8%, the “Mut. freq. (×10-6) N-MF” value [1, 2] was 2.2 ×10-6 and the “Mut. freq. (×10-6) S-MF” value [1, 2] was 7.9 ×10-6. For the same molecule, the “Mut. freq. (×10-6) T-MF” value [1, 2] was 10.1 ×10-6, the “%SG” value [1, 3] was 86.8% and the “Mut. freq. (×10-6) N-MF” value [1, 3] was 0.9 ×10-6. For the same molecule, the “Mut. freq. (×10-6) S-MF” value [1, 3] was 5.8 ×10-6, the “Mut. freq. (×10-6) T-MF” value [1, 3] was 6.7 ×10-6 and the “%SG” value [1, 4] was 83.3%. The “Mut. freq. (×10-6) N-MF” value [1, 4] was 2.1 ×10-6, the “Mut. freq. (×10-6) S-MF” value [1, 4] was 10.3 ×10-6 and the “Mut. freq. (×10-6) T-MF” value [1, 4] was 12.3 ×10-6. The “%SG” value [1, 5] was 78.9%, the “Mut. freq. (×10-6) N-MF” value [1, 5] was 1.9 ×10-6 and the “Mut. freq. (×10-6) S-MF” value [1, 5] was 7.3 ×10-6. For the same molecule, the “Mut. freq. (×10-6) T-MF” value [1, 5] was 9.2 ×10-6, the “%SG” value [1, 6] was 74.2% and the “Mut. freq. N-MF” value [1, 6] was 2.7 ×10-6. The “Mut. freq. S-MF” value [1, 6] was 7.7 ×10-6, the “Mut. freq. T-MF” value [1, 6] was 10.3 ×10-6 and the “%SG” value [1, 7] was 76.3%. The “Mut. freq. N-MF” value [1, 7] was 3.4 ×10-6, the “Mut. freq. S-MF” value [1, 7] was 10.8 ×10-6 and the “Mut. freq. T-MF” value [1, 7] was 14.2 ×10-6. The “%SG” value [1, 8] was 83.1%, the “Mut. freq. N-MF” value [1, 8] was 1.5 ×10-6 and the “Mut. freq. S-MF” value [1, 8] was 7.6 ×10-6. For the same molecule, the “Mut. freq. T-MF” value [1, 8] was 9.1 ×10-6, the “%SG” value [1, 9] was 79.9% and the “Mut. freq. N-MF” value [1, 9] was 3.0 ×10-6. For the same molecule, the “Mut. freq. S-MF” value [1, 9] was 11.9 ×10-6, the “Mut. freq. T-MF” value [1, 9] was 14.9 ×10-6 and the “%SG” value [1, 10] was 79.2%. For the same molecule, the “Mut. freq. N-MF” value [1, 10] was 1.8 ×10-6, the “Mut. freq. S-MF” value [1, 10] was 7.0 ×10-6 and the “Mut. freq. T-MF” value [1, 10] was 8.9 ×10-6. For the same molecule, the “%SG” value [1, 11] was 87.5%, the “Mut. freq. N-MF” value [1, 11] was 3.4 ×10-6 and the “Mut. freq. S-MF” value [1, 11] was 24.1 ×10-6. The “Mut. freq. T-MF” value [1, 11] was 27.5 ×10-6, the “%SG” value [1, 12] was 80.8% and the “Mut. freq. N-MF” value [1, 12] was 3.4 ×10-6. The “Mut. freq. S-MF” value [1, 12] was 14.5 ×10-6, the “Mut. freq. T-MF” value [1, 12] was 17.9 ×10-6 and the “%SG” value [1, 13] was 84.3%. The “Mut. freq. N-MF” value [1, 13] was 3.4 ×10-6, the “Mut. freq. S-MF” value [1, 13] was 18.1 ×10-6 and the “Mut. freq. T-MF” value [1, 13] was 21.4 ×10-6. The “Adjusted CE0(%)” value (TK6 cells; [2]) was 52.1%, the “CE0 (%), cell viability on Day 0” value (TK6 cells; [2]) was 53.2% and the “CE3 (%), cell viability on Day 3” value (TK6 cells; [2]) was 116.0%. The “RS0 (%)” value (TK6 cells; [2]) was 75.5%, the RSG (TK6 cells; [2]) was 0.717 and the CE3 (TK6 cells; [2]) was 1.160. For the same molecule, the “Adjusted CE0(%)” value (TK6 cells; [3]) was 49.9%, the “CE0 (%), cell viability on Day 0” value (TK6 cells; [3]) was 48.8% and the “CE3 (%), cell viability on Day 3” value (TK6 cells; [3]) was 104.6%. For the same molecule, the “RS0 (%)” value (TK6 cells; [3]) was 72.4%, the RSG (TK6 cells; [3]) was 0.788 and the CE3 (TK6 cells; [3]) was 1.046. For the same molecule, the “Adjusted CE0(%)” value (TK6 cells; [4]) was 40.8%, the “CE0 (%), cell viability on Day 0” value (TK6 cells; [4]) was 40.8% and the “CE3 (%), cell viability on Day 3” value (TK6 cells; [4]) was 92.1%. The “RS0 (%)” value (TK6 cells; [4]) was 59.2%, the RSG (TK6 cells; [4]) was 0.679 and the CE3 (TK6 cells; [4]) was 0.921. For the same molecule, the “Adjusted CE0(%)” value (TK6 cells; [5]) was 26.2%, the “CE0 (%), cell viability on Day 0” value (TK6 cells; [5]) was 28.3% and the “CE3 (%), cell viability on Day 3” value (TK6 cells; [5]) was 112.0%. For the same molecule, the “RS0 (%)” value (TK6 cells; [5]) was 38.0%, the RSG (TK6 cells; [5]) was 0.616 and the CE3 (TK6 cells; [5]) was 1.120. The “Adjusted CE0” value (TK6 cells; [6]) was 75.0%, the “CE0 (cell viability on Day 0)” value (TK6 cells; [6]) was 72.7% and the “CE3 (cell viability on Day 3)” value (TK6 cells; [6]) was 81.6%. For the same molecule, the RS0 (TK6 cells; [6]) was 80.9%, the RSG (TK6 cells; [6]) was 0.721 and the CE3 (TK6 cells; [6]) was 0.816. The “Adjusted CE0” value (TK6 cells; [7]) was 51.3%, the “CE3 (cell viability on Day 3)” value (TK6 cells; [7]) was 95.0% and the RS0 (TK6 cells; [7]) was 57.2%. The RSG (TK6 cells; [7]) was 0.982, the CE3 (TK6 cells; [7]) was 0.950 and the “Adjusted CE0” value (TK6 cells; [8]) was 70.6%. For the same molecule, the “CE0 (cell viability on Day 0)” value (TK6 cells; [8]) was 68.7%, the “CE3 (cell viability on Day 3)” value (TK6 cells; [8]) was 86.6% and the RS0 (TK6 cells; [8]) was 76.2%. The RSG (TK6 cells; [8]) was 0.855, the CE3 (TK6 cells; [8]) was 0.866 and the “Adjusted CE0” value (TK6 cells; [9]) was 25.3%. For the same molecule, the “CE0 (cell viability on Day 0)” value (TK6 cells; [9]) was 36.0%, the RS0 (TK6 cells; [9]) was 28.1% and the RSG (TK6 cells; [9]) was 0.472. For the same molecule, the CE3 (TK6 cells; [9]) was 1.160, the “Adjusted CE0” value (TK6 cells; [10]) was 45.8% and the “CE0 (cell viability on Day 0)” value (TK6 cells; [10]) was 43.3%. The “CE3 (cell viability on Day 3)” value (TK6 cells; [10]) was 95.0%, the RS0 (TK6 cells; [10]) was 49.5% and the RSG (TK6 cells; [10]) was 0.544. The CE3 (TK6 cells; [10]) was 0.950, the “Adjusted CE0” value (TK6 cells; [11]) was 25.1% and the “CE3 (cell viability on Day 3)” value (TK6 cells; [11]) was 101.2%. For the same molecule, the RS0 (TK6 cells; [11]) was 28.0%, the RSG (TK6 cells; [11]) was 0.453 and the CE3 (TK6 cells; [11]) was 1.012. The “Adjusted CE0” value (TK6 cells; [12]) was 31.8%, the “CE0 (cell viability on Day 0)” value (TK6 cells; [12]) was 31.5% and the “CE3 (cell viability on Day 3)” value (TK6 cells; [12]) was 84.1%. It also gave an RS0 (TK6 cells; [12]) of 34.3%, an RSG (TK6 cells; [12]) of 0.246 and a CE3 (TK6 cells; [12]) of 0.841. The “Adjusted CE0” value (TK6 cells; [13]) was 20.5%, the “CE0 (cell viability on Day 0)” value (TK6 cells; [13]) was 25.3% and the “CE3 (cell viability on Day 3)” value (TK6 cells; [13]) was 108.2%. For the same molecule, the RS0 (TK6 cells; [13]) was 22.8%, the RSG (TK6 cells; [13]) was 0.237 and the CE3 (TK6 cells; [13]) was 1.082.
